Data as given in patent US10377753B2, “Substituted 4-azaindoles and their use as GluN2B receptor modulators” (Janssen Pharmaceutica NV, priority 2015, dated 2019).
Counter-ions that a name gives are not always drawn.

Molecular target: cloned human NR1/NR2B ion channels (Homo sapiens (Human), UniProt Q05586+Q13224)
Experiment: HNR2BC: effects of test articles on cloned human NR1/NR2B ion channels expressed in mammalian cells (FLIPR calcium flux)
Format: cell-based
Details: cloned human NR1/NR2B, Table 5
Summary of the method: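 Compounds were added to dye-loaded cells for 5 min with fluorescence monitored for agonism, followed by co-agonists (glutamate ~EC80, glycine 10 μM saturating) for 5 min. Cells stably expressed inducible human NR1/NR2B, and the buffer was pH 7.4. The FLIPR Ca2+ flux signal was normalized against control wells.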

Sequence of cloned human NR1/NR2B ion channels (Q13224 27-1484, other chains not shown): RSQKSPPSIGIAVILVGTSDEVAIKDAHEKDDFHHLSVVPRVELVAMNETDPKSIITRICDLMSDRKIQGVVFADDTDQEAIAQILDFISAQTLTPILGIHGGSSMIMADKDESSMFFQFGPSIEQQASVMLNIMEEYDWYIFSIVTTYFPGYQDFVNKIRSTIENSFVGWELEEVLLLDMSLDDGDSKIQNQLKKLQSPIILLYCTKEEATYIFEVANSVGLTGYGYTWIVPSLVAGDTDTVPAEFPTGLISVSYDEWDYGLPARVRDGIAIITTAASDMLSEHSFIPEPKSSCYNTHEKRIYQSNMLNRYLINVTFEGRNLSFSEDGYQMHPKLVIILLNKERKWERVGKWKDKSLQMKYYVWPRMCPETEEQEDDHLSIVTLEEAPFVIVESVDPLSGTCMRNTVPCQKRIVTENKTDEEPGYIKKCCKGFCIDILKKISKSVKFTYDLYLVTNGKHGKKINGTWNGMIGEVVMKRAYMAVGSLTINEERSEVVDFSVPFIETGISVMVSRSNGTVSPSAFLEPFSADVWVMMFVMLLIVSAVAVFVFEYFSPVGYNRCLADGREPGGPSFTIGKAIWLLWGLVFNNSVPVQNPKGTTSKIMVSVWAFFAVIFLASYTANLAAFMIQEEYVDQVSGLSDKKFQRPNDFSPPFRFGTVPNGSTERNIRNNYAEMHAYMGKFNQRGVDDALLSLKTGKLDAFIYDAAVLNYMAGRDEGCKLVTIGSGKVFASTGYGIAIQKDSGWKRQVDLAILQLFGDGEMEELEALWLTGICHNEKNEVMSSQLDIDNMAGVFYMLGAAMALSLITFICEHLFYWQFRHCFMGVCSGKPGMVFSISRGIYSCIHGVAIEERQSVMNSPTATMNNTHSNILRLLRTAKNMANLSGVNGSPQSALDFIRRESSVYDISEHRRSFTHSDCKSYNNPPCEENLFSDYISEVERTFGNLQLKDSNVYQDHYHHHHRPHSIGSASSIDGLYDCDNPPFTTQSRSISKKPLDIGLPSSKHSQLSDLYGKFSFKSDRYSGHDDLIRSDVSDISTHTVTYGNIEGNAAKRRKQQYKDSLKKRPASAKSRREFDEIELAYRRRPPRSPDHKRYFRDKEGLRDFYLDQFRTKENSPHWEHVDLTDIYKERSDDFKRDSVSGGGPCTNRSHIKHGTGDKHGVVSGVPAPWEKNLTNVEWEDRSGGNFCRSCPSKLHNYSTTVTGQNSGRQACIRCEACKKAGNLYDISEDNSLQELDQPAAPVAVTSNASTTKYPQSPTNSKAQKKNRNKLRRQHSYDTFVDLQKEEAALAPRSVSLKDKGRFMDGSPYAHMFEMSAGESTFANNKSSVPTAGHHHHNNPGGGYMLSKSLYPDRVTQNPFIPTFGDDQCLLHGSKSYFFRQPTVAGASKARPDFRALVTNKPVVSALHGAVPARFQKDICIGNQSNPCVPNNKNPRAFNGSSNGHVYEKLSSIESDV

| Compound | IC50 |
| --- | --- |
| CCc1ccc(-c2cnc3ccn(CC(=O)N4CC(F)C4)c3c2)s1 [Example 281, 2-[6-(5-Ethyl-2-thienyl)pyrrolo[3,2-b]pyridin-1-yl]-1-(3-fluoroazetidin-1-yl)ethanone] | 20 nM |
| CCc1ccc(-c2cnc3ccn(CC(=O)N4CC(F)(F)C4)c3c2)s1 [Example 284, 1-(3,3-Difluoroazetidin-1-yl)-2-[6-(5-ethyl-2-thienyl)pyrrolo[3,2-b]pyridin-1-yl]ethanone] | 100 nM |
| O=C(Cn1ccc2ncc(-c3cc(Cl)cs3)cc21)N1CC(F)C1 [Example 285, 2-[6-(4-Chloro-2-thienyl)pyrrolo[3,2-b]pyridin-1-yl]-1-(3-fluoroazetidin-1-yl)ethanone] | 158 nM |
| Cc1cc(-c2cnc3ccn(C/C(=N/O)C4CC4)c3c2)ccc1F [Example 286, 1-Cyclopropyl-2-[6-(4-fluoro-3-methyl-phenyl)pyrrolo[3,2-b]pyridin-1-yl]ethanone oxime trifluoroacetate salt] | 158 nM |
| O=C(Cn1ccc2ncc(-c3ccc(Cl)s3)cc21)N1CCCC1 [Example 287, 2-[6-(5-Chloro-2-thienyl)pyrrolo[3,2-b]pyridin-1-yl]-1-pyrrolidin-1-yl-ethanone] | 631 nM |
| O=C(Cn1ccc2ncc(-c3cc(Cl)cs3)cc21)N1CCCC1 [Example 288, 2-[6-(4-Chloro-2-thienyl)pyrrolo[3,2-b]pyridin-1-yl]-1-pyrrolidin-1-yl-ethanone] | 20 nM |
| COC1CN(C(=O)Cn2ccc3ncc(-c4ccc(F)c(C)c4)cc32)C1 [Example 290, 2-[6-(4-Fluoro-3-methyl-phenyl)pyrrolo[3,2-b]pyridin-1-yl]-1-(3-methoxyazetidin-1-yl)ethanone] | 631 nM |
| O=C(Cn1ccc2ncc(-c3cccc(F)c3)cc21)C1CCC1 [Example 292, 1-Cyclobutyl-2-[6-(3-fluorophenyl)pyrrolo[3,2-b]pyridin-1-yl]ethanone] | 1260 nM |
| O=C(Cn1ccc2ncc(-c3ccc(F)cc3)cc21)N1CC[C@H](F)C1 [Example 294, 2-[6-(4-Fluorophenyl)pyrrolo[3,2-b]pyridin-1-yl]-1-[(3S)-3-fluoropyrrolidin-1-yl]ethanone trifluoroacetate salt] | 316 nM |
| CCN(C)C(=O)Cn1ccc2ncc(-c3ccc(F)c(C)c3)cc21 [Example 296, N-Ethyl-2-[6-(4-fluoro-3-methyl-phenyl)pyrrolo[3,2-b]pyridin-1-yl]-N-methyl-acetamide] | 25.1 nM |
| O=C(Cn1cc(Cl)c2ncc(-c3ccccc3)cc21)C1CC1 [Example 300, 2-(3-Chloro-6-phenyl-pyrrolo[3,2-b]pyridin-1-yl)-1-cyclopropyl-ethanone] | 20 nM |
| O=C(Cn1cc(F)c2ncc(-c3ccc(F)cc3)cc21)N1CCC1 [Example 302, 1-(Azetidin-1-yl)-2-[3-fluoro-6-(4-fluorophenyl)pyrrolo[3,2-b]pyridin-1-yl]ethanone] | 31.6 nM |
| Cc1cc(-c2cnc3c(F)cn(CC(=O)N4CCOCC4)c3c2)ccc1F [Example 304, 2-[3-Fluoro-6-(4-fluoro-3-methyl-phenyl)pyrrolo[3,2-b]pyridin-1-yl]-1-morpholino-ethanone] | 158 nM |
| Cc1csc(-c2cnc3c(F)cn(CC(=O)N4CC(F)C4)c3c2)c1 [Example 309, 1-(3-Fluoroazetidin-1-yl)-2-[3-fluoro-6-(4-methyl-2-thienyl)pyrrolo[3,2-b]pyridin-1-yl]ethanone] | 200 nM |
| O=C(Cn1cc(F)c2ncc(-c3cccc(C(F)F)c3)cc21)N1CC(F)C1 [Example 310, 2-[6-[3-(Difluoromethyl)phenyl]-3-fluoro-pyrrolo[3,2-b]pyridin-1-yl]-1-(3-fluoroazetidin-1-yl)ethanone] | 50.1 nM |
| O=C(Cn1cc(F)c2ncc(-c3ccc(F)c(F)c3)cc21)N1CC(F)C1 [Example 311, 2-[6-(3,4-Difluorophenyl)-3-fluoro-pyrrolo[3,2-b]pyridin-1-yl]-1-(3-fluoroazetidin-1-yl)ethanone] | 63.1 nM |
| O=C(Cn1cc(Cl)c2ncc(-c3ccc(F)c(F)c3F)cc21)N1CCC1 [Example 312, 1-(Azetidin-1-yl)-2-[3-chloro-6-(2,3,4-trifluorophenyl)pyrrolo[3,2-b]pyridin-1-yl]ethanone] | 158 nM |
| O=C(Cn1cc(F)c2ncc(-c3cc(F)c(F)c(F)c3)cc21)N1CCCC1 [Example 315, 2-[3-Fluoro-6-(3,4,5-trifluorophenyl)pyrrolo[3,2-b]pyridin-1-yl]-1-pyrrolidin-1-yl-ethanone] | 79.4 nM |
| Cc1csc(-c2cnc3c(F)cn(CC(=O)C4CC4)c3c2)c1 [Example 317, 1-Cyclopropyl-2-[3-fluoro-6-(4-methyl-2-thienyl)pyrrolo[3,2-b]pyridin-1-yl]ethanone] | 39.8 nM |
| O=C(Cn1cc(F)c2ncc(-c3ccc(Cl)s3)cc21)C1CC1 [Example 318, 2-[6-(5-Chloro-2-thienyl)-3-fluoro-pyrrolo[3,2-b]pyridin-1-yl]-1-cyclopropyl-ethanone] | 20 nM |
| O=C(Cn1cc(F)c2ncc(-c3ccc(F)cc3)cc21)C1CC1 [Example 319, 1-Cyclopropyl-2-[3-fluoro-6-(4-fluorophenyl)pyrrolo[3,2-b]pyridin-1-yl]ethanone] | 20 nM |

The remaining lines, values ahead:

| IC50 | Compound |
| --- | --- |
| 251 nM | O=C(Cn1ccc2ncc(-c3cccs3)cc21)N1CCCC1 [Example 278, 1-Pyrrolidin-1-yl-2-[6-(2-thienyl)pyrrolo[3,2-b]pyridin-1-yl]ethanone] |
| 251 nM | Cc1ccc(-c2cnc3ccn(CC(=O)N4CC(F)(F)C4)c3c2)s1 [Example 279, 1-(3,3-Difluoroazetidin-1-yl)-2-[6-(5-methyl-2-thienyl)pyrrolo[3,2-b]pyridin-1-yl]ethanone] |
| 31.6 nM | Cc1ccc(-c2cnc3ccn(CC(=O)N4CC(F)C4)c3c2)s1 [Example 280, 1-(3-Fluoroazetidin-1-yl)-2-[6-(5-methyl-2-thienyl)pyrrolo[3,2-b]pyridin-1-yl]ethanone] |
| 79.4 nM | CCc1ccc(-c2cnc3ccn(CC(=O)N4CCCC4)c3c2)s1 [Example 282, 2-[6-(5-Ethyl-2-thienyl)pyrrolo[3,2-b]pyridin-1-yl]-1-pyrrolidin-1-yl-ethanone] |
| 200 nM | Cc1ccc(-c2cnc3ccn(CC(=O)N4CCCC4)c3c2)s1 [Example 283, 2-[6-(5-Methyl-2-thienyl)pyrrolo[3,2-b]pyridin-1-yl]-1-pyrrolidin-1-yl-ethanone] |
| 79.4 nM | COCCn1ccc2ncc(-c3ccc(F)c(C)c3)cc21 [Example 291, 6-(4-Fluoro-3-methyl-phenyl)-1-(2-methoxyethyl)pyrrolo[3,2-b]pyridine trifluoroacetate salt] |
| 316 nM | CCC(=O)Cn1ccc2ncc(-c3ccc(F)c(C)c3)cc21 [Example 295, 1-[6-(4-Fluoro-3-methyl-phenyl)pyrrolo[3,2-b]pyridin-1-yl]butan-2-one trifluoroacetate salt] |
| 39.8 nM | CCN(CC)C(=O)Cn1ccc2ncc(-c3ccc(F)c(C)c3)cc21 [Example 297, N,N-Diethyl-2-[6-(4-fluoro-3-methyl-phenyl)pyrrolo[3,2-b]pyridin-1-yl]acetamide] |
| 501 nM | O=C(Cn1cc(Cl)c2ncc(-c3cccc(C(F)(F)F)c3)cc21)N1CCC1 [Example 298, 1-(Azetidin-1-yl)-2-[3-chloro-6-[3-(trifluoromethyl)phenyl]pyrrolo[3,2-b]pyridin-1-yl]ethanone] |
| 50.1 nM | Cc1cccc(-c2cnc3c(Cl)cn(CC(=O)C4CC4)c3c2)c1 [Example 299, 2-[3-Chloro-6-(m-tolyl)pyrrolo[3,2-b]pyridin-1-yl]-1-cyclopropyl-ethanone] |
| 20 nM | O=C(Cn1cc(Cl)c2ncc(-c3cc(F)c(F)c(F)c3)cc21)N1CCC1 [Example 301, 1-(Azetidin-1-yl)-2-[3-chloro-6-(3,4,5-trifluorophenyl)pyrrolo[3,2-b]pyridin-1-yl]ethanone] |
| 39.8 nM | Cc1cc(C)cc(-c2cnc3c(Cl)cn(CC(=O)N4CCC4)c3c2)c1 [Example 303, 1-(Azetidin-1-yl)-2-[3-chloro-6-(3,5-dimethylphenyl)pyrrolo[3,2-b]pyridin-1-yl]ethanone] |
| 79.4 nM | O=C(Cn1cc(F)c2ncc(-c3ccc(F)cc3)cc21)N1CCOCC1 [Example 305, 2-[3-Fluoro-6-(4-fluorophenyl)pyrrolo[3,2-b]pyridin-1-yl]-1-morpholino-ethanone] |
| 398 nM | O=C(Cn1cc(F)c2ncc(-c3cc(F)c(F)c(F)c3)cc21)N1CC(F)C1 [Example 306, 1-(3-Fluoroazetidin-1-yl)-2-[3-fluoro-6-(3,4,5-trifluorophenyl)pyrrolo[3,2-b]pyridin-1-yl]ethanone] |
| 39.8 nM | Cc1cc(-c2cnc3c(F)cn(CC(=O)N4CC(F)C4)c3c2)ccc1F [Example 307, 1-(3-Fluoroazetidin-1-yl)-2-[3-fluoro-6-(4-fluoro-3-methyl-phenyl)pyrrolo[3,2-b]pyridin-1-yl]ethanone] |
| 63.1 nM | O=C(Cn1cc(F)c2ncc(-c3ccc(F)cc3)cc21)N1CC(F)C1 [Example 308, 1-(3-Fluoroazetidin-1-yl)-2-[3-fluoro-6-(4-fluorophenyl)pyrrolo[3,2-b]pyridin-1-yl]ethanone] |
| 20 nM | Cc1cc(-c2cnc3c(F)cn(CC(=O)N4CCCC4)c3c2)ccc1F [Example 313, 2-[3-Fluoro-6-(4-fluoro-3-methyl-phenyl)pyrrolo[3,2-b]pyridin-1-yl]-1-pyrrolidin-1-yl-ethanone] |
| 63.1 nM | O=C(Cn1cc(F)c2ncc(-c3ccc(F)cc3)cc21)N1CCCC1 [Example 314, 2-[3-Fluoro-6-(4-fluorophenyl)pyrrolo[3,2-b]pyridin-1-yl]-1-pyrrolidin-1-yl-ethanone] |
| 39.8 nM | Cc1cc(-c2cnc3c(F)cn(CC(=O)C4CC4)c3c2)ccc1F [Example 316, 1-Cyclopropyl-2-[3-fluoro-6-(4-fluoro-3-methyl-phenyl)pyrrolo[3,2-b]pyridin-1-yl]ethanone] |
| 31.6 nM | O=C(Cn1cc(F)c2ncc(-c3cc(F)c(F)c(F)c3)cc21)C1CC1 [Example 320, 1-Cyclopropyl-2-[3-fluoro-6-(3,4,5-trifluorophenyl)pyrrolo[3,2-b]pyridin-1-yl]ethanone] |
